{"source": "patent US20070141723A1", "about": "“Immunohistochemistry staining controls” (priority 2005, published 2007)", "key": {"1D5 monoclonal antibody": {"test_system": "1D5 monoclonal antibody", "assay": "Peptide ELISA of synthetic ER peptides with 1D5", "assay_type": "binding, mouse", "conditions": "compared among ER peptides 3, 4 and 6", "from_the_text": "Three synthetic peptides (designated as ER peptide 3, ER peptide 4, and ER peptide 6), that are representative of above consensus phage sequence, were synthesized (by SynPep Labs, Dublin, Calif. and Bachem Labs, King of Prussia, Pa.) and tested for specificity/affinity to 1D5 monoclonal antibody."}, "ER peptide mimic": {"target": "ER peptide mimic", "assay": "immunostaining of ER peptide mimic spots on matrix, semi-quantitative colour score"}}, "note": "*: point of attachment. FITC = O=C1OC2(c3ccc(O)cc3Oc3cc(O)ccc32)c2ccc(NC(=S)*)cc21"}
{"substance": "Ac-DFQCPYVECVVNAPGGK (FITC) GK-CONH2 (Ac-DFQCPYVECVVNAPGGK(FITC)GK-NH2; cysteine pairing not given here) [ER peptide 3]", "values": [{"measurement": "peptide ELISA signal", "setting": "1D5 monoclonal antibody", "value": "highest signal"}]}
{"substance": "anti-human estrogen receptor mouse monoclonal antibody 1D5", "values": [{"measurement": "Staining intensity (1-4+)", "setting": "ER peptide mimic", "value": "4 1-4+ scale"}]}
